Experimental data reported in patent publication US4683240A, “Pharmaceutical composition containing an imidazolidinetrione derivative or pharmaceutically acceptable salt thereof” (Nippon Zoki Pharmaceutical Co., Ltd., priority 1985, dated 1987).
Like-named read-outs stand apart in the source and are kept apart here.

How the values were obtained:
Format in all cases: in vivo, rat (Wistar-strain)
Serum Phospholipid = experiment: Hypolipidemic effect: serum phospholipid; conditions: 2 h
Description: (§1) The test drugs suspended in 0.5% aqueous C.M.C. solution were orally administered to groups of 8 Wistar-strain male rats (weighing about 185 g) which were fasted for 18 to 20 hours. 2 hours later, the serum was obtained in the same manner described in (2). Serum triglyceride was measured according to the GPO-p-chlorophenol colorimetric determination [Richard W. Spayd et al., Clinical Chemistry, 24, 1343 (1978)], serum free fatty acid was measured according to the Acyl CoA Synthetase-Acyl CoA Oxidase method [Shimizu S. et al., Biochem. Biophys. Res. Commun., 91, 108 (1979)], free fatty acid was measured according to the enzymatic method [Charles C. Allain et al., Clin. Chem., 20, No. 4, 470 (1974)] and total cholesterol was measured according to the enzymatic method [Takayama M. et al., Clinica Chimica Acta, 79, 93 (1977)]. Asterisks indicate significant differences (*: p<0.05, **: p<00.01, ***: p<0.001) from the control.

Serum Free Fatty Acid = experiment: Hypolipidemic effect: serum free fatty acid; conditions: 2 h
Description: as §1

Total Serum Cholesterol = experiment: Hypolipidemic effect: total serum cholesterol; conditions: 2 h
Description: as §1

Serum Triglyceride = experiment: Hypolipidemic effect: serum triglyceride; conditions: 2 h
Description: as §1

Blood Glucose = experiment: Hypoglycemic effect in glucose-loaded fasted rats (blood glucose); conditions: for inhibition in vivo at 100 mg/kg: Rattus norvegicus, vs control, read-out: Blood Glucose Decrease; for inhibition in vivo at 100 mg/kg / Blood Glucose Level: 100 mg/kg oral, 2 h
Description: Groups of 7 Wistar-strain male rats (weighing about 200 g) which were fasted for 18 hours were used for measurement of hypoglycemic effect according to the modified method by Dulin et al. [Dulin, W. L. et al., Proc. Soc. Expl. Med., 107, 245 (1961)]. That is, 0.5 ml/100 g of 20% aqueous solution of glucose was subcutaneously administered to the backs of rats to prevent a decrease in blood glucose level because of the fasting. Immediately thereafter the test drug suspended in 0.5% aqueous C.M.C. solution was orally given, and 2 hours later, the animals underwent laparotomy under pentobarbital anesthesia, then blood was drawn from the vena cava. The obtained blood sample was allowed to stand for 30 minutes to complete the coagulation and was centrifuged to obtain the serum. Blood sugar level was measured according to the mutalotase GOD method [Trinder, Ann. Clin. Biochem., 6, 24 […]]. Asterisks indicate significant differences (*: p<0.05, **: p<0.01, ***: p<0.001) from the control.

[1] = 100 mg/kg oral, control 79 ± 2 (compounds 2-12), 72 ± 2 (compounds 15-29)
[2] = Rattus norvegicus, 100 mg/kg oral, vs control, read-out: Serum Phospholipid Decrease
[3] = 100 mg/kg oral, control 0.53 ± 0.03 (compounds 2-12), 0.52 ± 0.03 (compounds 15-24)
[4] = Rattus norvegicus, 100 mg/kg oral, vs control, read-out: Serum Free Fatty Acid Decrease
[5] = 100 mg/kg oral, control 44 ± 2 (compounds 4-12), 41 ± 1 (compounds 15-29)
[6] = Rattus norvegicus, 100 mg/kg oral, vs control, read-out: Total Serum Cholesterol Decrease
[7] = 100 mg/kg oral, control 65 ± 5 (compounds 2-12), 57 ± 4 (compounds 15-29)
[8] = Rattus norvegicus, 100 mg/kg oral, vs control, read-out: Serum Triglyceride Decrease

SMILES | inhibition in vivo at 100 mg/kg (Blood Glucose; Table 2) | Blood Glucose Level (Blood Glucose; Table 2, control 133 ± 6) | Serum Phospholipid Level (Serum Phospholipid; [1]) | inhibition in vivo at 100 mg/kg (Serum Phospholipid; [2]) | Serum Free Fatty Acid Level (Serum Free Fatty Acid; [3]) | inhibition in vivo at 100 mg/kg (Serum Free Fatty Acid; [4]) | Total Serum Cholesterol Level (Total Serum Cholesterol; [5]) | inhibition in vivo at 100 mg/kg (Total Serum Cholesterol; [6]) | Serum Triglyceride Level (Serum Triglyceride; [7]) | inhibition in vivo at 100 mg/kg (Serum Triglyceride; [8]) | inhibition in vivo at 100 mg/kg (Blood Glucose; Table 3) | Blood Glucose Level (Blood Glucose; Table 3, control 133 ± 4) | also measured
CCCCNC(=O)NS(=O)(=O)c1ccc(C)cc1 [Tolubutamide, reference compound] | 63.9% | 48 ± 1 mg/dL |  |  |  |  |  |  |  |  |  |  | Serum Phospholipid Level (Serum Phospholipid; 50 mg/kg oral, control 79 ± 2): 75 ± 2 mg/dL; inhibition in vivo at 50 mg/kg (Serum Phospholipid; Rattus norvegicus, 50 mg/kg oral, vs control, read-out: Serum Phospholipid Decrease): 5.1%; Serum Free Fatty Acid Level (Serum Free Fatty Acid; 50 mg/kg oral, control 0.53 ± 0.03): 0.44 ± 0.02 mEq/l; inhibition in vivo at 50 mg/kg (Serum Free Fatty Acid; Rattus norvegicus, 50 mg/kg oral, vs control, read-out: Serum Free Fatty Acid Decrease): 15.7%; Total Serum Cholesterol Level (Total Serum Cholesterol; 50 mg/kg oral, control 44 ± 2): 46 ± 1 mg/dL; inhibition in vivo at 50 mg/kg (Total Serum Cholesterol; Rattus norvegicus, 50 mg/kg oral, vs control, read-out: Total Serum Cholesterol Decrease): -4.5%; Serum Triglyceride Level (Serum Triglyceride; 50 mg/kg oral, control 65 ± 5): 53 ± 4 mg/dL; inhibition in vivo at 50 mg/kg (Serum Triglyceride; Rattus norvegicus, 50 mg/kg oral, vs control, read-out: Serum Triglyceride Decrease): 18.5%; Blood sugar effect (in words) (Blood Glucose; oral, rats): excessive hypoglycemia
CCCCN1C(=O)NC(=O)C1=O [compound 4, 1-butylimidazolidinetrione] | 33.8% | 88 ± 7 mg/dL | 58 ± 1 mg/dL | 26.6% | 0.27 ± 0.02 mEq/l | 49.1% | 39 ± 1 mg/dL | 11.4% | 23 ± 1 mg/dL | 64.6% |  |  | 
CC(C)CN1C(=O)NC(=O)C1=O [compound 5, 1-iso-butylimidazolidinetrione] | 39.1% | 81 ± 1 mg/dL |  |  |  |  |  |  |  |  |  |  | 
CC(C)(C)N1C(=O)NC(=O)C1=O [compound 6, 1-tert-butylimidazolidinetrione] | 18% | 109 ± 4 mg/dL |  |  |  |  |  |  |  |  |  |  | 
CCCCCCN1C(=O)NC(=O)C1=O [compound 7, 1-hexylimidazolidinetrione] | 23.3% | 102 ± 6 mg/dL | 66 ± 2 mg/dL | 16.5% |  |  |  |  | 38 ± 3 mg/dL | 41.5% |  |  | 
CCCCCCCCCCN1C(=O)NC(=O)C1=O [compound 9, 1-decylimidazolidinetrione] | 18% | 109 ± 4 mg/dL |  |  |  |  |  |  |  |  |  |  | 
O=C1NC(=O)N(C2CCCC2)C1=O [compound 10, 1-cyclopentylimidazolidinetrione] | 24.8% | 100 ± 4 mg/dL |  |  |  |  |  |  |  |  |  |  | 
O=C1NC(=O)N(C2CCCCC2)C1=O [compound 11, 1-cyclohexylimidazolidinetrione] | 24.1% | 101 ± 2 mg/dL | 60 ± 2 mg/dL | 24.1% | 0.34 ± 0.01 mEq/l | 35.8% | 39 ± 1 mg/dL | 11.4% | 27 ± 1 mg/dL | 58.5% |  |  | 
CN1C(=O)C(=O)N(C)C1=O [compound 12, 1,3-dimethylimidazolidinetrione] | 15% | 115 ± 4 mg/dL | 61 ± 2 mg/dL | 22.8% | 0.37 ± 0.03 mEq/l | 30.2% | 39 ± 1 mg/dL | 11.4% | 35 ± 3 mg/dL | 46.2% |  |  | 
CCN1C(=O)C(=O)N(C2CCCC2)C1=O [compound 13, 1-cyclopentyl-3-ethylimidazolidinetrione] | 14.7% | 116 ± 5 mg/dL |  |  |  |  |  |  |  |  |  |  | 
O=C1NC(=O)N(Cc2ccccc2F)C1=O [compound 16, 1-(2-fluorobenzyl)imidazolidinetrione] |  |  | 54 ± 1 mg/dL | 25% |  |  | 33 ± 2 mg/dL | 19.5% | 30 ± 1 mg/dL | 47.4% | 11.3% | 118 ± 4 mg/dL | 
O=C1NC(=O)N(Cc2cccc(F)c2)C1=O [compound 17, 1-(3-fluorobenzyl)imidazolidinetrione] |  |  | 58 ± 1 mg/dL | 19.4% |  |  | 37 ± 1 mg/dL | 9.8% | 30 ± 1 mg/dL | 47.4% | 13.5% | 115 ± 2 mg/dL | 
O=C1NC(=O)N(Cc2ccc(F)cc2)C1=O [compound 18, 1-(4-fluorobenzyl)imidazolidinetrione] |  |  | 56 ± 1 mg/dL | 22.2% | 0.42 ± 0.02 mEq/l | 19.2% | 34 ± 1 mg/dL | 17.1% | 30 ± 1 mg/dL | 47.4% | 20.3% | 106 ± 3 mg/dL | 
O=C1NC(=O)N(Cc2ccc(Br)cc2)C1=O [compound 21, 1-(4-bromobenzyl)imidazolidinetrione] |  |  | 57 ± 1 mg/dL | 20.8% | 0.44 ± 0.02 mEq/l | 15.2% | 36 ± 1 mg/dL | 12.2% | 35 ± 2 mg/dL | 38.6% |  |  | 
O=C1NC(=O)N(Cc2ccc([N+](=O)[O-])cc2)C1=O [compound 23, 1-(4-nitrobenzyl)imidazolidinetrione] |  |  | 65 ± 2 mg/dL | 9.7% |  |  |  |  | 38 ± 2 mg/dL | 33.3% | 12% | 117 ± 3 mg/dL | 
Cc1ccccc1CN1C(=O)NC(=O)C1=O [compound 24, 1-(2-methylbenzyl)imidazolidinetrione] |  |  | 56 ± 1 mg/dL | 22.2% | 0.45 ± 0.01 mEq/l | 13.5% | 36 ± 1 mg/dL | 12.2% | 30 ± 1 mg/dL | 47.4% | 12.8% | 116 ± 3 mg/dL | 
Cc1cccc(CN2C(=O)NC(=O)C2=O)c1 [compound 25, 1-(3-methylbenzyl)imidazolidinetrione] |  |  | 57 ± 2 mg/dL | 20.8% |  |  | 36 ± 1 mg/dL | 12.2% | 33 ± 2 mg/dL | 42.1% | 13.5% | 115 ± 3 mg/dL | 
Cc1ccc(CN2C(=O)NC(=O)C2=O)cc1 [compound 26, 1-(4-methylbenzyl)imidazolidinetrione] |  |  | 58 ± 1 mg/dL | 19.4% |  |  | 37 ± 1 mg/dL | 9.8% | 37 ± 1 mg/dL | 35.1% | 9.8% | 120 ± 2 mg/dL | 
COc1ccc(CN2C(=O)NC(=O)C2=O)cc1 [compound 29, 1-(4-methoxybenzyl)imidazolidinetrione] |  |  | 58 ± 1 mg/dL | 19.4% |  |  | 36 ± 1 mg/dL | 12.2% | 43 ± 3 mg/dL | 24.6% | 9.8% | 120 ± 2 mg/dL | 
